# Results from patent US9738634B2, “Heterocyclic amide compound and herbicide” (SYNGENTA PARTICIPATIONS AG, priority 2013, dated 2017).
# Legend:
# [1] = system: oval-leafed pondweed; assay: Test Example 2: weedkilling efficacy, growth period weed treatment in the submerged state; C: oval-leafed pondweed; assay type: in vivo; details: treatment dosage 320 g/ha
# Summary of the method: (§1)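 Weeds treated at the 1-2 leaf stage by application of diluted emulsion onto floodwater (4 cm depth, alluvial soil) at specified g/ha. Grown in greenhouse at 25 to 30° C; herbicidal effect rated three weeks after treatment.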
# [2] = system: barnyard grass; assay: Test Example 3: weedkilling efficacy through soil treatment; F: barnyard grass; assay type: in vivo; details: treatment dosage 320 g/ha
# Summary of the method: (§2)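 Crop and weed responses were judged three weeks after a uniform surface spray of the water-diluted emulsion at the given g/ha rate. Seeds sat beneath about 1.5 cm of sterilized diluvial soil, and boxes stood in a greenhouse at 25 to 30° C.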
# [3] = system: birds-eye speedwell; assay: Test Example 4: weedkilling efficacy by foliar treatment; p: birds-eye speedwell; assay type: in vivo; details: treatment dosage 320 g/ha
# Summary of the method: (§3)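 Seeds are spot-sown into sterilized diluvial soil and covered with about 1.5 cm of soil. After 14 days' greenhouse growth at 25 to 30° C, plants are sprayed on stems and leaves with diluted emulsion at the stated g/ha rate, then scored at 3 weeks.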
# [4] = system: Italian ryegrass; assay: Test Example 3: weedkilling efficacy through soil treatment; I: Italian ryegrass; assay type: in vivo; details: treatment dosage 320 g/ha
# Summary of the method: as §2
# [5] = system: bulrush; assay: Test Example 2: weedkilling efficacy, growth period weed treatment in the submerged state; B: bulrush; assay type: in vivo; details: treatment dosage 320 g/ha
# Summary of the method: as §1
# [6] = system: crabgrass; assay: Test Example 4: weedkilling efficacy by foliar treatment; D: crabgrass; assay type: in vivo; details: treatment dosage 320 g/ha
# Summary of the method: as §3
# [7] = system: wild oat; assay: Test Example 3: weedkilling efficacy through soil treatment; G: wild oat; assay type: in vivo; details: treatment dosage 320 g/ha
# Summary of the method: as §2
# [8] = system: beet; assay: Test Example 3: soil treatment, effect on crop; f: beet; assay type: in vivo; details: treatment dosage 320 g/ha
# Summary of the method: as §2
# [9] = system: Indian mallow; assay: Test Example 3: weedkilling efficacy through soil treatment; K: Indian mallow; assay type: in vivo; details: treatment dosage 320 g/ha
# Summary of the method: as §2
# [10] = system: barnyard grass; assay: Test Example 2: weedkilling efficacy, growth period weed treatment in the submerged state; A: barnyard grass; assay type: in vivo; details: treatment dosage 320 g/ha
# Summary of the method: as §1
# [11] = system: soybean; assay: Test Example 4: foliar treatment, effect on crop; d: soybean; assay type: in vivo; details: treatment dosage 320 g/ha
# Summary of the method: as §3
# [12] = system: fig-leafed goosefoot; assay: Test Example 4: weedkilling efficacy by foliar treatment; M: fig-leafed goosefoot; assay type: in vivo; details: treatment dosage 320 g/ha
# Summary of the method: as §3
# [13] = system: Indian mallow; assay: Test Example 4: weedkilling efficacy by foliar treatment; K: Indian mallow; assay type: in vivo; details: treatment dosage 320 g/ha
# Summary of the method: as §3
# [14] = system: redroot pigweed; assay: Test Example 4: weedkilling efficacy by foliar treatment; L: redroot pigweed; assay type: in vivo; details: treatment dosage 320 g/ha
# Summary of the method: as §3
# [15] = system: catchweed; assay: Test Example 4: weedkilling efficacy by foliar treatment; O: catchweed; assay type: in vivo; details: treatment dosage 320 g/ha
# Summary of the method: as §3
# [16] = system: corn; assay: Test Example 3: soil treatment, effect on crop; c: corn; assay type: in vivo; details: treatment dosage 320 g/ha
# Summary of the method: as §2
# [17] = system: wheat; assay: Test Example 4: foliar treatment, effect on crop; e: wheat; assay type: in vivo; details: treatment dosage 320 g/ha
# Summary of the method: as §3
# [18] = system: Italian ryegrass; assay: Test Example 4: weedkilling efficacy by foliar treatment; I: Italian ryegrass; assay type: in vivo; details: treatment dosage 320 g/ha
# Summary of the method: as §3
# [19] = system: wheat; assay: Test Example 3: soil treatment, effect on crop; e: wheat; assay type: in vivo; details: treatment dosage 320 g/ha
# Summary of the method: as §2
# [20] = system: bulrush; assay: Test Example 1: weedkilling efficacy, preemergent weed treatment in the submerged state; B: bulrush; assay type: in vivo; details: treatment dosage 320 g/ha
# Summary of the method: (§4)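 Pots of alluvial soil were flooded to a 4 cm depth. Mixed weed seeds were sown and 2.5 leaf-stage rice seedlings transplanted. On sowing day, water-diluted emulsion was applied to the water surface (dose in g/ha). After 3 weeks at 25–30 °C, effects were rated.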
# [21] = system: black-grass; assay: Test Example 3: weedkilling efficacy through soil treatment; H: black-grass; assay type: in vivo; details: treatment dosage 320 g/ha
# Summary of the method: as §2
# [22] = system: green foxtail; assay: Test Example 4: weedkilling efficacy by foliar treatment; E: green foxtail; assay type: in vivo; details: treatment dosage 320 g/ha
# Summary of the method: as §3
# [23] = system: transplanted rice; assay: Test Example 1: preemergent weed treatment in the submerged state, effect on crop; a: transplanted rice; assay type: in vivo; details: treatment dosage 320 g/ha
# Summary of the method: as §4
# [24] = system: barnyard grass; assay: Test Example 1: weedkilling efficacy, preemergent weed treatment in the submerged state; A: barnyard grass; assay type: in vivo; details: treatment dosage 320 g/ha
# Summary of the method: as §4
# [25] = system: crabgrass; assay: Test Example 3: weedkilling efficacy through soil treatment; D: crabgrass; assay type: in vivo; details: treatment dosage 320 g/ha
# Summary of the method: as §2
# [26] = system: chickweed; assay: Test Example 4: weedkilling efficacy by foliar treatment; N: chickweed; assay type: in vivo; details: treatment dosage 320 g/ha
# Summary of the method: as §3
# [27] = system: directly sown rice; assay: Test Example 3: soil treatment, effect on crop; b: directly sown rice; assay type: in vivo; details: treatment dosage 320 g/ha
# Summary of the method: as §2
# [28] = system: directly sown rice; assay: Test Example 4: foliar treatment, effect on crop; b: directly sown rice; assay type: in vivo; details: treatment dosage 320 g/ha
# Summary of the method: as §3
# [29] = system: rapeseed; assay: Test Example 4: foliar treatment, effect on crop; g: rapeseed; assay type: in vivo; details: treatment dosage 320 g/ha
# Summary of the method: as §3
# [30] = system: common wind-grass; assay: Test Example 4: weedkilling efficacy by foliar treatment; J: common wind-grass; assay type: in vivo; details: treatment dosage 320 g/ha
# Summary of the method: as §3
# [31] = system: black-grass; assay: Test Example 4: weedkilling efficacy by foliar treatment; H: black-grass; assay type: in vivo; details: treatment dosage 320 g/ha
# Summary of the method: as §3
# [32] = system: barnyard grass; assay: Test Example 4: weedkilling efficacy by foliar treatment; F: barnyard grass; assay type: in vivo; details: treatment dosage 320 g/ha
# Summary of the method: as §3
# [33] = system: fig-leafed goosefoot; assay: Test Example 3: weedkilling efficacy through soil treatment; M: fig-leafed goosefoot; assay type: in vivo; details: treatment dosage 320 g/ha
# Summary of the method: as §2
# [34] = system: beet; assay: Test Example 4: foliar treatment, effect on crop; f: beet; assay type: in vivo; details: treatment dosage 320 g/ha
# Summary of the method: as §3
# [35] = system: chickweed; assay: Test Example 3: weedkilling efficacy through soil treatment; N: chickweed; assay type: in vivo; details: treatment dosage 320 g/ha
# Summary of the method: as §2
# [36] = system: redroot pigweed; assay: Test Example 3: weedkilling efficacy through soil treatment; L: redroot pigweed; assay type: in vivo; details: treatment dosage 320 g/ha
# Summary of the method: as §2
# [37] = system: corn; assay: Test Example 4: foliar treatment, effect on crop; c: corn; assay type: in vivo; details: treatment dosage 320 g/ha
# Summary of the method: as §3
# [38] = system: common wind-grass; assay: Test Example 3: weedkilling efficacy through soil treatment; J: common wind-grass; assay type: in vivo; details: treatment dosage 320 g/ha
# Summary of the method: as §2
# [39] = system: soybean; assay: Test Example 3: soil treatment, effect on crop; d: soybean; assay type: in vivo; details: treatment dosage 320 g/ha
# Summary of the method: as §2
# [40] = system: green foxtail; assay: Test Example 3: weedkilling efficacy through soil treatment; E: green foxtail; assay type: in vivo; details: treatment dosage 320 g/ha
# Summary of the method: as §2
# [41] = system: catchweed; assay: Test Example 3: weedkilling efficacy through soil treatment; O: catchweed; assay type: in vivo; details: treatment dosage 320 g/ha
# Summary of the method: as §2
# [42] = system: birds-eye speedwell; assay: Test Example 3: weedkilling efficacy through soil treatment; p: birds-eye speedwell; assay type: in vivo; details: treatment dosage 320 g/ha
# Summary of the method: as §2
# [43] = system: rapeseed; assay: Test Example 3: soil treatment, effect on crop; g: rapeseed; assay type: in vivo; details: treatment dosage 320 g/ha
# Summary of the method: as §2
# [44] = system: wild oat; assay: Test Example 4: weedkilling efficacy by foliar treatment; G: wild oat; assay type: in vivo; details: treatment dosage 320 g/ha
# Summary of the method: as §3
# [45] = system: oval-leafed pondweed; assay: Test Example 1: weedkilling efficacy, preemergent weed treatment in the submerged state; C: oval-leafed pondweed; assay type: in vivo; details: treatment dosage 320 g/ha
# Summary of the method: as §4
compound,measurement,setting,value
"CCCN(C(=O)C(C)(C)N1COCN(c2ccccc2)C1=O)c1cc(C(F)(F)F)ccn1 [A-5-05, 2-methyl-2-(4-oxo-5-phenyl-1,3,5-oxadiazinan-3-yl)-N-propyl-N-[4-(trifluoromethyl)-pyridin-2-yl]propionamide]",melting point,,163 to 164 °C
"CCC1N=CSN1NC(=O)C(C)(C)N1COC(C)=C(c2ccsc2)C1=O (centres unmarked) [B-1-02, N-(3-ethyl-1,2,4-thiadiazol-2-yl)-2-methyl-2-[6-methyl-4-oxo-5-(thiophen-3-yl)-2H-1,3-oxazin-3(4H)-yl]propionamide]",melting point,,171 to 172 °C
CC1=C(c2ccccc2)C(=O)N(C(C)(C)C(=O)Nc2cc(C#N)ccn2)CO1 [B-2-62],C (oval-leafed pondweed) weedkilling efficacy grade,[1],"5 (weed kill ratio 90% or more, (practically complete withering))"
same,F (barnyard grass) weedkilling efficacy grade,[2],"3 (weed kill ratio 40% or more, less than 70%)"
same,P (birds-eye speedwell) weedkilling efficacy grade,[3],"4 (weed kill ratio 70% or more, less than 90%)"
same,I (Italian ryegrass) weedkilling efficacy grade,[4],"4 (weed kill ratio 70% or more, less than 90%)"
same,B (bulrush) weedkilling efficacy grade,[5],"3 (weed kill ratio 40% or more, less than 70%)"
same,D (crabgrass) weedkilling efficacy grade,[6],"3 (weed kill ratio 40% or more, less than 70%)"
same,G (wild oat) weedkilling efficacy grade,[7],"3 (weed kill ratio 40% or more, less than 70%)"
same,f (beet) effect on crop grade,[8],0 (weed kill ratio 5% or less (practically no effect))
same,K (Indian mallow) weedkilling efficacy grade,[9],0 (weed kill ratio 5% or less (practically no effect))
same,A (barnyard grass) weedkilling efficacy grade,[10],"4 (weed kill ratio 70% or more, less than 90%)"
same,d (soybean) effect on crop grade,[11],0 (weed kill ratio 5% or less (practically no effect))
same,M (fig-leafed goosefoot) weedkilling efficacy grade,[12],"3 (weed kill ratio 40% or more, less than 70%)"
same,K (Indian mallow) weedkilling efficacy grade,[13],"4 (weed kill ratio 70% or more, less than 90%)"
same,L (redroot pigweed) weedkilling efficacy grade,[14],"4 (weed kill ratio 70% or more, less than 90%)"
same,O (catchweed) weedkilling efficacy grade,[15],"1 (weed kill ratio 5% or more, less than 20%)"
same,c (corn) effect on crop grade,[16],0 (weed kill ratio 5% or less (practically no effect))
same,e (wheat) effect on crop grade,[17],0 (weed kill ratio 5% or less (practically no effect))
same,I (Italian ryegrass) weedkilling efficacy grade,[18],"2 (weed kill ratio 20% or more, less than 40%)"
same,e (wheat) effect on crop grade,[19],0 (weed kill ratio 5% or less (practically no effect))
same,B (bulrush) weedkilling efficacy grade,[20],"5 (weed kill ratio 90% or more, (practically complete withering))"
same,H (black-grass) weedkilling efficacy grade,[21],"3 (weed kill ratio 40% or more, less than 70%)"
same,E (green foxtail) weedkilling efficacy grade,[22],"3 (weed kill ratio 40% or more, less than 70%)"
same,a (transplanted rice) effect on crop grade,[23],"1 (weed kill ratio 5% or more, less than 20%)"
same,A (barnyard grass) weedkilling efficacy grade,[24],"5 (weed kill ratio 90% or more, (practically complete withering))"
same,D (crabgrass) weedkilling efficacy grade,[25],"4 (weed kill ratio 70% or more, less than 90%)"
same,N (chickweed) weedkilling efficacy grade,[26],"2 (weed kill ratio 20% or more, less than 40%)"
same,b (directly sown rice) effect on crop grade,[27],0 (weed kill ratio 5% or less (practically no effect))
same,b (directly sown rice) effect on crop grade,[28],0 (weed kill ratio 5% or less (practically no effect))
same,g (rapeseed) effect on crop grade,[29],"4 (weed kill ratio 70% or more, less than 90%)"
same,J (common wind-grass) weedkilling efficacy grade,[30],"4 (weed kill ratio 70% or more, less than 90%)"
same,H (black-grass) weedkilling efficacy grade,[31],"3 (weed kill ratio 40% or more, less than 70%)"
same,F (barnyard grass) weedkilling efficacy grade,[32],"3 (weed kill ratio 40% or more, less than 70%)"
same,M (fig-leafed goosefoot) weedkilling efficacy grade,[33],"3 (weed kill ratio 40% or more, less than 70%)"
same,f (beet) effect on crop grade,[34],0 (weed kill ratio 5% or less (practically no effect))
same,N (chickweed) weedkilling efficacy grade,[35],"3 (weed kill ratio 40% or more, less than 70%)"
same,L (redroot pigweed) weedkilling efficacy grade,[36],"2 (weed kill ratio 20% or more, less than 40%)"
same,c (corn) effect on crop grade,[37],0 (weed kill ratio 5% or less (practically no effect))
same,J (common wind-grass) weedkilling efficacy grade,[38],"5 (weed kill ratio 90% or more, (practically complete withering))"
same,d (soybean) effect on crop grade,[39],0 (weed kill ratio 5% or less (practically no effect))
same,E (green foxtail) weedkilling efficacy grade,[40],"4 (weed kill ratio 70% or more, less than 90%)"
same,O (catchweed) weedkilling efficacy grade,[41],0 (weed kill ratio 5% or less (practically no effect))
same,P (birds-eye speedwell) weedkilling efficacy grade,[42],"4 (weed kill ratio 70% or more, less than 90%)"
same,g (rapeseed) effect on crop grade,[43],0 (weed kill ratio 5% or less (practically no effect))
same,G (wild oat) weedkilling efficacy grade,[44],"1 (weed kill ratio 5% or more, less than 20%)"
same,C (oval-leafed pondweed) weedkilling efficacy grade,[45],"5 (weed kill ratio 90% or more, (practically complete withering))"
